Assay [1] concerns REH. Briefly: Cell viability (CellTiter Glo), compressed perturbation pools with informed pool design, SUM-based deconvolution, REH. Further details: scale not given here. As for the experimental part: (§1) Total cell viability was measured for each sample using an ATP-based luminescence assay (i.e., CellTiter Glo). Each cancer drug was then screened at multiple concentrations ranging from one nM to ten μM in order to generate a dose-response curve and calculate a DRS for each cancer cell line.
(§2) Each cancer drug was cultured with target cells individually. At the end of the screen, samples were either analyzed individually or compressed into pools for analysis. The library was compressed alphabetically into ten cohorts, each of which contained seven cancer drugs present in three out of the seven pools, as shown in Table VII. Said another way, the screening platform 210 generated a “7 pick 3” compressed library by assigning the cancer drugs among different pools. […] The library was also compressed into ten cohorts with pools designed based on information known about each cancer drug, as shown in Table VIII. After cell viability measurement and DRS calculation, the DRS of each cancer drug in the samples generated based on the pools were deconvoluted and compared to the DRS for each cancer drug measured individually.
(§3) In parallel to the exemplary sample compression screen covered in Table VII, perturbations were compressed into pools and then screened. The pools were designed using drug class as a feature with two compression rules (or simply “rules”). The first rule required that drugs from the same class be separated into different cohorts (i.e., mutually exclusive groups of pools). The second rule separated PI3K pathway inhibitors from MAPK pathway inhibitors, as inhibiting these pathways in parallel is known to be synergistic but has not been clinically effective due to dose-limiting toxicities. A benefit of compressing perturbations is the ability to measure additive, antagonistic, and synergistic effects between drugs in the same pool. However, these effects can negatively impact deconvolution of individual drug effects. Therefore, combinations of drugs for which evidence of clinical toxicity exists can be assigned to different pools in accordance with an informed pooling operation. As new preclinical or clinical evidence of toxic combinations becomes available, the rules implemented by the screening platform 210—and more specifically, its algorithm for compressing members of a library—can be updated accordingly.
(§4) In SUM-based deconvolution, an assumption of additivity is used to quantify the individual effects of each perturbation on each target. Additivity implies that each perturbation effect on each target is positively contributing to the overall effect measured for that pool. This is an accurate assumption for certain experiments, such as when targets or samples are compressed. When targets are pooled—or when samples containing different targets are pooled—the effect of each perturbation on each individual target is diluted. In other words, each perturbation has an isolated effect on a target in culture, and the sum total of the isolated effects are measured when pooled. Therefore, SUM-based deconvolution breaks down the sum total measured for a pool and assigns estimated fractional effects to each compressed perturbation or target in the pool. The screening platform 210 used SUM-based deconvolution for all target and sample compression experiments described above.
(§5) As mentioned above, SUM-based deconvolution uses the overlapping pool design to identify relative relationships and ranges for the individual effects of each perturbation. When the overlapping pool design is not sufficient to solve for the polynomials representing perturbation effects, an anchor perturbation can be identified by the screening platform 210 based on rank order and assigned an effect size of zero. The anchor perturbation may be the lowest ranked perturbation in the rank order. This then enables the screening platform 210 to solve for the polynomials for the remaining perturbations.

Assay [2] concerns MOLT-4. Briefly: Cell viability (CellTiter Glo), compressed perturbation pools with informed pool design, SUM-based deconvolution, MOLT-4. Further details: scale not given here. How it is done: as §1, §2, §3, §4, §5
In general terms: ATP-based viability assays read luminescence as a measure of living cells.

Assay [3] deals with MOLT-4. Briefly: Cell viability (CellTiter Glo), compressed perturbation pools with informed pool design, MAX-based deconvolution, MOLT-4.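 On DRS from MAX-based deconvolution: higher DRS means a larger drug effect.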 To be noted: for DRS: MOLT-4, None (measured individually), informed pool design table; for DRS from MAX-based deconvolution: MOLT-4, Samples, 7 Pick 3 informed perturbation pools; for DRS, MOLT-4, MAX: compressed perturbation pools, informed pool design, MAX-based deconvolution. Summed up: (§6)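 Drugs dosed from 1 nM to 10 μM with ATP-luminescence viability, giving a DRS per drug. Pools designed by drug class, with same-class drugs in separate cohorts and clinically toxic pairs kept apart.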

Assay [4] concerns MOLT-4. The experiment in a line: Cell viability (CellTiter Glo), library of cancer drugs, individual or sample compression with randomized (alphabetical) pools, MOLT-4. Conditions: for DRS: MOLT-4, None (measured individually); for DRS from deconvolution: MOLT-4, Samples, 7 Pick 3 randomized (alphabetical) sample pools. It is filed as cell-based. Summed up:
(§7)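 Cells cultured with each drug individually at 1 nM–10 μM; viability by ATP luminescence (CellTiter Glo) to build dose-response curves and DRS. Samples read singly or pooled alphabetically (each drug in 3 of 7 pools), with pooled DRS recovered by additivity-based SUM deconvolution.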

Assay [5] concerns REH. Briefly: Cell viability (CellTiter Glo), compressed perturbation pools with informed pool design, MAX-based deconvolution, REH.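 On DRS from MAX-based deconvolution: higher DRS means a larger drug effect.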 Conditions: for DRS / DRS from MAX-based deconvolution / DRS, REH, MAX: REH; for DRS: None (measured individually), informed pool design table; for DRS from MAX-based deconvolution: Samples, 7 Pick 3 informed perturbation pools; for DRS, REH, MAX: compressed perturbation pools, informed pool design, MAX-based deconvolution. Summed up:
as §6

Assay [6] relates to REH. Briefly: Cell viability (CellTiter Glo), library of cancer drugs, individual or sample compression with randomized (alphabetical) pools, REH. Conditions: REH; for DRS: None (measured individually); for DRS from deconvolution: Samples, 7 Pick 3 randomized (alphabetical) sample pools. It is filed as cell-based. Summed up: as §7

Each structure is given as a SMILES string.

With `C[C@@H](Oc1cc(-c2cnn(C3CCNCC3)c2)cnc1N)c1c(Cl)ccc(F)c1Cl` [Crizotinib], the “DRS, REH, SUM” value in assay [1] stood at 0.00. The “DRS, MOLT-4, SUM” value in assay [2] is 3.06. For the same compound, in assay [3], the DRS worked out at 0.27; the “DRS from MAX-based deconvolution” value is on record as 0.27; the “DRS, MOLT-4, MAX” value worked out at 0.00. Further, in assay [4], the DRS was 0.23 and the DRS from deconvolution was 0.28. In assay [5], the DRS is listed as 0.27; the “DRS from MAX-based deconvolution” value is reported as 0.00; the “DRS, REH, MAX” value was 0.00. In assay [6], the DRS stood at 0.23 and the DRS from deconvolution worked out at 015.

Take `COc1cc(OC)cc(N(CCNC(C)C)c2ccc3ncc(-c4cnn(C)c4)nc3c2)c1` [Erdafitinib]: in assay [1], the “DRS, REH, SUM” value was 0.00. Moreover, the “DRS, MOLT-4, SUM” value in assay [2] stood at 1.38. For the same compound, in assay [3], the DRS amounted to 0.38; the “DRS from MAX-based deconvolution” value is 4.94; the “DRS, MOLT-4, MAX” value was determined as 3.88. In assay [4], the DRS amounted to 3.37 and the DRS from deconvolution is 3.41. In assay [5], the DRS is 0.38; the “DRS from MAX-based deconvolution” value was 0.73; the “DRS, REH, MAX” value was determined as 0.00. In assay [6], this compound returned a DRS of 4.37 and a DRS from deconvolution of 4.03.

As to `CO[C@H]1C[C@@H]2CC[C@@H](C)[C@@](O)(O2)C(=O)C(=O)N2CCCC[C@H]2C(=O)O[C@H]([C@H](C)C[C@@H]2CC[C@@H](OCCO)[C@H](OC)C2)CC(=O)[C@H](C)/C=C(\C)[C@@H](O)[C@@H](OC)C(=O)[C@H](C)C[C@H](C)/C=C/C=C/C=C/1C` [Everolimus], in assay [1], the “DRS, REH, SUM” value is 9.02. In addition, in assay [2], the “DRS, MOLT-4, SUM” value stood at 1.42. In assay [3], the DRS is given as 0.23; the “DRS from MAX-based deconvolution” value stood at 0.00; the “DRS, MOLT-4, MAX” value stood at 2.51. In assay [4], this compound yielded a DRS of 2.19 and a DRS from deconvolution of 2.35. Further, the “effect on REH relative to MOLT cell line” value in assay [5] (REH relative to MOLT) is “much larger effects on the REH cell line”. In assay [5], the DRS is listed as 0.23; the “DRS from MAX-based deconvolution” value came to 0.00; the “DRS, REH, MAX” value is recorded as 9.02. For the same compound, in assay [6], the DRS was 7.39 and the DRS from deconvolution stood at 7.70.

As for `Cc1ccc(Nc2nccc(N(C)c3ccc4c(C)n(C)nc4c3)n2)cc1S(N)(=O)=O` [Pazopanib], the “DRS, REH, SUM” value in assay [1] was determined as 8.02. In addition, the “DRS, MOLT-4, SUM” value in assay [2] is listed as 2.41. In assay [3], the DRS came to 3.50; the “DRS from MAX-based deconvolution” value came to 0.00; the “DRS, MOLT-4, MAX” value came out at 5.39. In assay [4], this compound showed a DRS of 0.68 and a DRS from deconvolution of 0.00. Moreover, in assay [5], the DRS was 3.93; the “DRS from MAX-based deconvolution” value turned out to be 4.01; the “DRS, REH, MAX” value is listed as 7.06. In assay [6], this compound displayed a DRS of 5.88 and a DRS from deconvolution of 5.90.

Turning to `CS(=O)(=O)c1ccc(C(=O)Nc2ccc(Cl)c(-c3ccccn3)c2)c(Cl)c1` [Vismodegib], the DRS in assay [3] is 4.08; in assay [4], 0.70; in assay [5] it was 2.58; in assay [6], 0.00. The “DRS from MAX-based deconvolution” value in assay [3] is 4.35; in assay [5], 3.06. Moreover, the values for the DRS from deconvolution in assay [4] and in assay [6] were 0.56 and 0.00, respectively.

In the case of `CN1CC[C@@H](NC(=O)Nc2ccc(C#N)cc2)C[C@@H]1c1nc2ccccc2[nH]1` [Glasdegib], the DRS in assay [3] stood at 0.00; in assay [4] it was 0.03; in assay [5], 0.00; in assay [6], 1.63. Further, the “DRS from MAX-based deconvolution” value in assay [3] and in assay [5] was 0.00 in each case. Further, the results for the DRS from deconvolution in assay [4] and in assay [6] were 0.00 and 1.45, respectively.

Take `FC(F)(F)c1ccc(CNc2ccc(Cc3c[nH]c4ncc(Cl)cc34)cn2)cn1` [Pexidartinib]: the DRS amounted to 7.00 in assay [3], 0.00 in assay [4], 1.00 in assay [5] and 2.30 in assay [6]. The results for the “DRS from MAX-based deconvolution” value in assay [3] and in assay [5] were 9.12 and 0.00, respectively. Moreover, the DRS from deconvolution in assay [4] was found to be 0.00; in assay [6], 2.11.

For the compound `CC(=O)Nc1cccc(-n2c(=O)n(C3CC3)c(=O)c3c(Nc4ccc(I)cc4F)n(C)c(=O)c(C)c32)c1` [Trametinib], the DRS came out at 24.71 in assay [3], 0.00 in assay [4], 21.81 in assay [5] and 0.00 in assay [6]. In addition, the “DRS from MAX-based deconvolution” value in assay [3] was determined as 24.91; in assay [5] it was 23.72. The DRS from deconvolution in assay [4] and in assay [6] was 0.00 each time.

In the case of `CC#CC(=O)N1CCC[C@H]1c1nc(-c2ccc(C(=O)Nc3ccccn3)cc2)c2c(N)nccn12` [Acalabrutinib], the DRS in assay [3], in assay [4], in assay [5] and in assay [6] was 0.00 in each case. In addition, the “DRS from MAX-based deconvolution” value in assay [3] and in assay [5] was 0.00 throughout. For the same compound, the DRS from deconvolution in assay [4] and in assay [6] was 0.00 throughout.

Regarding `CC/C(=C(\c1ccccc1)c1ccc(OCCN(C)C)cc1)c1ccccc1` [Tamoxifen], the DRS stood at 0.74 in assay [3], 1.12 in assay [4], 0.14 in assay [5] and 3.12 in assay [6]. The “DRS from MAX-based deconvolution” value in assay [3] and in assay [5] was 0.00 each time. Also, the DRS from deconvolution came to 1.09 in assay [4] and 3.01 in assay [6].

Take `CCc1nc(C(N)=O)c(Nc2ccc(N3CCC(N4CCN(C)CC4)CC3)c(OC)c2)nc1NC1CCOCC1` [Gilteritinib]: the DRS stood at 0.00 in assay [3], 0.00 in assay [4], 0.20 in assay [5] and 0.00 in assay [6]. For the same compound, the “DRS from MAX-based deconvolution” value in assay [3] and in assay [5] was 0.00 throughout. In addition, the DRS from deconvolution in assay [4] and in assay [6] was 0.00 each time.

In the case of `Cn1cnc2c(F)c(Nc3ccc(Br)cc3F)c(C(=O)NOCCO)cc21` [Binimetinib], the DRS is recorded as 0.11 in assay [3], 0.00 in assay [4], 0.37 in assay [5] and 0.00 in assay [6]. Besides, the “DRS from MAX-based deconvolution” value in assay [3] and in assay [5] was 0.00 each time. In addition, the DRS from deconvolution in assay [4] and in assay [6] was 0.00 in each case.

The record behind these values is patent US20260378560A1, “APPROACHES TO DESIGNING AND PERFORMING COMPRESSED BIOLOGICAL EXPERIMENTS AND SYSTEMS FOR IMPLEMENTING THE SAME” (EXVIVO LABS INC., priority 2023, published 2026).
